According to PubChem BioAssay AID2060889 (Molecular Pharmacology Branch, DTP, NCI, 2025):

Tested on: LG0567-F671-PDC complex spheroids viability
Assay: Anticancer human tumor LG0567-F671-PDC patient-derived lung adenocarcinoma cell line growth inhibition [RAS]
Conditions: for IC50: curve of first compound; for viability, T/C: stronger effect = lower value
Procedure, shortened: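 Agents were tested in combination matrices in half-log decrements from a top concentration at or near clinical Cmax (10 microM if undetermined). Targets were multi-cell spheroids of tumour lines plus HUVEC and MSC stromal cells.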
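Also: spheroids exposed to compound for seven days before readout.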
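For IC50 in this document: luminescence signal used as a proxy for viable cells.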

## CC(C)n1nc(-c2ccc3oc(N)nc3c2)c2c(N)ncnc21 + CCn1c(-c2cccnc2C(C)OC)c2c3cc(ccc31)N1CCOC(CC(NC(=O)C(C(C)C)N(C)C(=O)C3(F)CCN(C(=O)C#CC(C)(C)N(C)C)CC3)C(=O)N3CCCC(N3)C(=O)OCC(C)(C)C2)C1
Second compound 0.000949 µM
  IC50: < 0.316 nM
Second compound 0.003 µM
  IC50: < 0.316 nM
Second compound 0.00949 µM
  IC50: < 0.316 nM
Second compound 0.03 µM
  IC50: < 0.316 nM
Second compound 0.0949 µM
  IC50: < 0.316 nM
Second compound 0.3 µM
  IC50: < 0.316 nM
Second compound 0.000949 µM, first compound 0.000316 µM
  viability, T/C: 14.9%
Second compound 0.000949 µM, first compound 0.001 µM
  viability, T/C: 14.4%
Second compound 0.000949 µM, first compound 0.00316 µM
  viability, T/C: 12.2%
Second compound 0.000949 µM, first compound 0.01 µM
  viability, T/C: 9.49%
Second compound 0.000949 µM, first compound 0.0316 µM
  viability, T/C: 8.53%
Second compound 0.000949 µM, first compound 0.1 µM
  viability, T/C: 14.7%
Second compound 0.003 µM, first compound 0.000316 µM
  viability, T/C: 15.6%
Second compound 0.003 µM, first compound 0.001 µM
  viability, T/C: 12.4%
Second compound 0.003 µM, first compound 0.00316 µM
  viability, T/C: 12.5%
Second compound 0.003 µM, first compound 0.01 µM
  viability, T/C: 10.2%
Second compound 0.003 µM, first compound 0.0316 µM
  viability, T/C: 8.31%
Second compound 0.003 µM, first compound 0.1 µM
  viability, T/C: 13.6%
Second compound 0.00949 µM, first compound 0.000316 µM
  viability, T/C: 13.3%
Second compound 0.00949 µM, first compound 0.001 µM
  viability, T/C: 13.2%
Second compound 0.00949 µM, first compound 0.00316 µM
  viability, T/C: 13.3%
Second compound 0.00949 µM, first compound 0.01 µM
  viability, T/C: 10.2%
Second compound 0.00949 µM, first compound 0.0316 µM
  viability, T/C: 7.68%
Second compound 0.00949 µM, first compound 0.1 µM
  viability, T/C: 12.6%
Second compound 0.03 µM, first compound 0.000316 µM
  viability, T/C: 12%
Second compound 0.03 µM, first compound 0.001 µM
  viability, T/C: 14%
Second compound 0.03 µM, first compound 0.00316 µM
  viability, T/C: 11%
Second compound 0.03 µM, first compound 0.01 µM
  viability, T/C: 9.46%
Second compound 0.03 µM, first compound 0.0316 µM
  viability, T/C: 7.2%
Second compound 0.03 µM, first compound 0.1 µM
  viability, T/C: 11.5%
Second compound 0.0949 µM, first compound 0.000316 µM
  viability, T/C: 11.1%
Second compound 0.0949 µM, first compound 0.001 µM
  viability, T/C: 10.9%
Second compound 0.0949 µM, first compound 0.00316 µM
  viability, T/C: 9.2%
Second compound 0.0949 µM, first compound 0.01 µM
  viability, T/C: 7.52%
Second compound 0.0949 µM, first compound 0.0316 µM
  viability, T/C: 5.8%
Second compound 0.0949 µM, first compound 0.1 µM
  viability, T/C: 10.4%
Second compound 0.3 µM, first compound 0.000316 µM
  viability, T/C: 9.46%
Second compound 0.3 µM, first compound 0.001 µM
  viability, T/C: 8.59%
Second compound 0.3 µM, first compound 0.00316 µM
  viability, T/C: 8.57%
Second compound 0.3 µM, first compound 0.01 µM
  viability, T/C: 7.61%
Second compound 0.3 µM, first compound 0.0316 µM
  viability, T/C: 4.68%
Second compound 0.3 µM, first compound 0.1 µM
  viability, T/C: 8.47%
